Assay type in all cases: in vivo, human
One assay concerns Alzheimer's disease. Description: Oral tranilast in a patient with Alzheimer's disease (Case 5), testing methods for dementia HDS-R and MMSE. As to the method:
2. Confirmation that the agent for suppressing or inhibiting an amyloid fibril formation of the present invention has a therapeutic effect against cerebral amyloidosis. Because it was shown that tranilast has the effect of suppressing amyloid fibril formation in the skin, whether dementia and Alzheimer's disease arising from amyloid fibril deposition in the brain could be ameliorated was studied. A patient with Alzheimer's disease (person) was administered orally with a 100 mg capsule of tranilast (brand name: Rizaben, Kissei Pharmaceutical Co., Ltd.) three times a day. About 5 months after the start of administration of tranilast on Oct.

A further assay deals with cutaneous amyloidosis. Description: Oral tranilast treatment of patients with cutaneous amyloidosis / cutaneous lichen amyloidosis (Cases 1-3), clinical observation of skin symptoms. The source says: 1. Confirmation that the agent for suppressing or inhibiting an amyloid fibril formation of the present invention has a therapeutic effect against cutaneous amyloidosis.
patient one observed with symptoms of cutaneous amyloidosis specific pigment-associating invasion and itch in the upper back had been treated without tranilast for an initial duration of 4 years, however, no therapeutic effect was observed. Therefore, the treatment shifted to the use of tranilast. The above-mentioned patient was administered orally with a 100 mg capsule of tranilast (brand name: Rizaben, Kissei Pharmaceutical Co., Ltd.) three times a day. […] Worsening or relapse of rash was not observed at least 3 years afterwards.
Therefore, the treatment shifted to the use of tranilast. The above-mentioned patient was administered orally with a 100 mg capsule of tranilast (brand name: Rizaben, Kissei Pharmaceutical Co., Ltd.) three times a day. From day 16 (Jul. 16, 2014) (see FIG. 1B) after the start of oral administration on Jun. […] The degree of amelioration of rash increased day by day (see FIGS. 1C to 1E).
A patient observed with chronic eczema with rash along with strong itch in the upper back for several years started the treatment with tranilast. The patient was administered orally with a 100 mg capsule of tranilast (brand name: Rizaben, Kissei Pharmaceutical Co., Ltd.) three times a day. When the oral administration started on Jul. 29, 2014, amyloid deposited brown papule was densely lichenified (see FIG. 2A).

The test system of the next assay is dementia. The assay is described as follows: Oral tranilast in a patient with dementia (Case 4), testing methods for dementia HDS-R and MMSE. Here is the method: 2. Confirmation that the agent for suppressing or inhibiting an amyloid fibril formation of the present invention has a therapeutic effect against cerebral amyloidosis. Because it was shown that tranilast has the effect of suppressing amyloid fibril formation in the skin, whether dementia and Alzheimer's disease arising from amyloid fibril deposition in the brain could be ameliorated was studied. A patient with dementia (patient two) was administered orally with a 100 mg capsule of tranilast (brand name: Rizaben, Kissei Pharmaceutical Co., Ltd.) three times a day.

Setting [1] is: Case 1, 100 mg capsule orally three times a day, within another 1 month (about 2 months after start).
The mark [2] stands for this setting: 1 year and 4 months after start of administration (December 2013).

SMILES strings stand for the structures. A value given as a limit tells only on which side of the number the result lay.

On to `COc1ccc(/C=C/C(=O)Nc2ccccc2C(=O)O)cc1OC` [tranilast, N-(3,4-dimethoxycinnamoyl)anthranilic acid], for which, in the assay on Alzheimer's disease (100 mg capsule orally three times a day, about 5 months after start), the “effect on the symptoms of Alzheimer's type dementia by HDS-R and MMSE” value is “clear ameliorating effect”. Moreover, the “HDS-R Value” in the assay on Alzheimer's disease (about 5 months after start (Mar. 19, 2015), value at start of administration 9) was determined as 12; in the assay on dementia (setting [2]) it was 20; with dementia (5 months after start of administration (January 2013), 23 at 1 year and 5 months before start), 15. For the same compound, the “MMSE Value” in the assay on Alzheimer's disease (about 5 months after start (Mar. 19, 2015), value at start of administration 14) worked out at 22; with dementia (setting [2]) it was 25; in the assay on dementia (5 months after start of administration (January 2013), 27 at 1 year and 5 months before, 28 at 3 years and 10 months before), 22. Moreover, the pigmentation entry with cutaneous amyloidosis (Case 1, upper back, 100 mg capsule orally three times a day, about 1 month after start of oral administration) is reported as “started to thin”. In addition, in the assay on cutaneous amyloidosis (setting [1]), the itch result is reported as “reduced”. The rash entry with cutaneous amyloidosis (setting [1]) was “largely ameliorated”. Also, the “worsening or relapse of rash” value in the assay with cutaneous amyloidosis (Case 1, at least 3 years afterwards) was “not observed”. Also, the “amyloid deposited brown papule” value in the assay with cutaneous amyloidosis (Case 2, 100 mg capsule orally three times a day, day 151 after start of oral administration) is “almost disappeared”; in the assay with cutaneous amyloidosis (Case 2, 100 mg capsule orally three times a day, from day 16 after start of oral administration) it was “thinned, decreased in size, and ameliorated clearly”. Also, in the assay with cutaneous amyloidosis (Case 2, day after start of oral administration), the “condition (papule almost disappeared) maintained until” value is at least 238 days. For the same compound, the “symptoms (densely lichenified amyloid deposited brown papule)” value in the assay on cutaneous amyloidosis (Case 3, upper back, 100 mg capsule orally three times a day, day 15 after start) was “improvement in the symptoms was observed”; in the assay with cutaneous amyloidosis (Case 3, 100 mg capsule orally three times a day, day 29 after start) it was “clear improvement in the symptoms was observed”. Further, the “improved condition maintained until” value in the assay with cutaneous amyloidosis (Case 3, day after start of oral administration) was at least 89 days. In the assay with dementia (100 mg capsule orally three times a day, 1 year and 4 months after start), the “effect by two testing methods for dementia (HDS-R and MMSE)” value is “clear ameliorating effect”.

(Values after US11723889B2, “Amyloid fiber formation limiter or inhibitor” (Omoidesouzou Co., Ltd., priority 2014, dated 2023).)
